# Values quoted from earlier work, collected in patent US7795220B2, “Conformationally constrained parathyroid hormones with alpha-helix stabilizers” (The General Hospital Corporation, priority 2003, dated 2010).
# Biological target: T1, P1R (Homo sapiens, UniProt Q03431)
# T1 sequence (Q03431 27-593): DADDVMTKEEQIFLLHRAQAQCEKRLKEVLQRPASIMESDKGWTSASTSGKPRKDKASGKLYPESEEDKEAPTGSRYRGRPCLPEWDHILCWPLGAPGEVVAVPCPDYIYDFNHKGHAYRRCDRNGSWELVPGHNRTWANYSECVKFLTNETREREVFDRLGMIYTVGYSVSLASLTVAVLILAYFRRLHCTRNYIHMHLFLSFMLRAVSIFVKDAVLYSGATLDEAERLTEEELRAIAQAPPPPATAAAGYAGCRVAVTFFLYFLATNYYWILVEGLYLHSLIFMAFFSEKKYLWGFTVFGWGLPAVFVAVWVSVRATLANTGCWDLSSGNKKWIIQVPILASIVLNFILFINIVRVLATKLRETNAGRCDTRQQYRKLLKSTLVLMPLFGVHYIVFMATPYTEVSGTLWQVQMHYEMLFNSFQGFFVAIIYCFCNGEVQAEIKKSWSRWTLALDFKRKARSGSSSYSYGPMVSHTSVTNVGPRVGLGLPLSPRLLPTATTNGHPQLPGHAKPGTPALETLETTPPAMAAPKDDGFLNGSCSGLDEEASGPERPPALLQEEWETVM
# Settings: literature; read-out: cAMP-signaling potency (EC50); cited from earlier work
substance,measurement,value
PTH(1-34),EC50,~2 nM
